System: green foxtail (Se)
Assay: Test Example 2: herbicidal effects by upland soil treatment;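 on herbicidal effects, Se (green foxtail): 0-5 growth inhibition grade; 5 = over 90%; 4 = 70-90%; 3 = 50-70%; 2 = 30-50%; 1 = 10-30%; 0 = under 10%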
Assay type: in vivo
Details: dose 100 g active ingredient per 10 ares, examined on the 21st day after treatment, standards of Table 44
Procedure: In a 80 cm^2 plastic pot, upland soil was filled, and seeds of barnyard grass (Ec) and green foxtail (Se) were sown and covered with soil. A wettable powder prepared in accordance with Formulation Example 1 was diluted with water and uniformly applied to the soil surface by means of a small size spray at a rate of 100 l per 10 ares, so that the dose of the active ingredient would be 100 g per 10 ares. Thereafter, cultivation was carried out in a green house, and on the 21st day after the treatment, the herbicidal effects were examined in accordance with the standards as identified in Table 44.

| SMILES | herbicidal effects, Se (green foxtail) |
| --- | --- |
| Cc1ccccc1OCC(=O)N(C)C(c1cncnc1C(F)(F)F)C(C)C (racemic) [Compound 1-134] | 5 |
| Cc1ccc(CC(=O)N(C)C(c2cncnc2C(C)C)C(C)C)cc1 (racemic) [Compound 1-131] | 5 |
| CC(C)C(c1cncnc1C(F)(F)F)N(C)C(=O)COc1cccc(F)c1 (racemic) [Compound 1-126] | 5 |
| CN(C(=O)Cc1ccc(Cl)cc1)C(c1ccc(F)cc1)c1cncnc1C(F)(F)F (racemic) [1-219] | 5 |
| CC(C)C(c1cncnc1C(F)(F)F)N(C)C(=O)Cc1ccc([N+](=O)[O-])cc1 (racemic) [Compound 1-52] | 5 |
| Cc1ccc(CC(=O)N(C)C(c2cncnc2C)C(C)(C)C)cc1 (racemic) [Compound 1-162] | 4 |

System: barnyard grass (Eo)
Assay: Test Example 1: herbicidal effects by flooded paddy field treatment;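 on Herbicidal effect index, Eo: 0-5 growth inhibition grade; 5 = over 90%; 4 = 70-90%; 3 = 50-70%; 2 = 30-50%; 1 = 10-30%; 0 = under 10%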
Assay type: in vivo
Parameters: herbicidal effects, Eo (barnyard grass):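 0-5 growth inhibition grade; 5 = over 90%; 4 = 70-90%; 3 = 50-70%; 2 = 30-50%; 1 = 10-30%; 0 = under 10%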
Details: dose 100 g active ingredient per 10 ares, examined on the 21st day after treatment, standards of Table 44
Summary of the method: (§1)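 Seeds sown in puddled paddy soil and flooded to 3 cm. Next day, a water-diluted wettable powder was dripped onto the water surface at 100 g active ingredient per 10 ares. Plants were grown in a greenhouse, and herbicidal effect was scored against a rating standard 21 days after treatment.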

| SMILES | herbicidal effects, Eo (barnyard grass) |
| --- | --- |
| Cc1ccccc1OCC(=O)N(C)C(c1cncnc1C(F)(F)F)C(C)C (racemic) [Compound 1-134] | 5 |
| Cc1ccc(CC(=O)N(C)C(c2cncnc2C(C)C)C(C)C)cc1 (racemic) [Compound 1-131] | 5 |
| CN(C(=O)Cc1ccc(Cl)cc1)C(c1ccc(F)cc1)c1cncnc1C(F)(F)F (racemic) [1-219] | 5 |
| Cc1ccc(CC(=O)N(C)C(c2cncnc2C)C(C)(C)C)cc1 (racemic) [Compound 1-162] | 5 |

Same assay, conditions: dose 100 gai/10a, examined on 21st day after treatment, index 0-5 per Table 44

| SMILES | Herbicidal effect index, Eo |
| --- | --- |
| CC(C)C(c1cncnc1C(F)(F)F)N(C)C(=O)COc1cccc(F)c1 (racemic) [Compound 1-126] | 5 |
| CC(C)C(c1cncnc1C(F)(F)F)N(C)C(=O)Cc1ccc([N+](=O)[O-])cc1 (racemic) [Compound 1-52] | 5 |

System: rice (Or)
Assay: Test Example 4: selectivity for a crop plant by flooded paddy field treatment
Assay type: in vivo
Parameters: scale not given here
Details: rice transplanted at second leaf stage, dose 25 g active ingredient per 10 ares, examined on the 21st day after treatment
Summary of the method: (§2)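 Paddled paddy soil in pots sown with barnyard grass and monochoria, with second-leaf-stage rice transplanted, under 3 cm of water. Next day a diluted wettable powder was dripped onto the water at 25 g active ingredient per 10 ares; effects scored on a rating scale 21 days later in a greenhouse.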

| Or (effect on crop plant rice, index) | SMILES |
| --- | --- |
| 1 | CC(C)C(c1cncnc1C(F)(F)F)N(C)C(=O)Cc1ccc([N+](=O)[O-])cc1 (racemic) [Compound 1-52] |

Same assay, conditions: rice transplanted at second leaf stage, dose 25 gai/10a, 21st day after treatment, index per Table 44

| SMILES | Or (herbicidal effect index on crop) |
| --- | --- |
| Cc1ccccc1OCC(=O)N(C)C(c1cncnc1C(F)(F)F)C(C)C (racemic) [Compound 1-134] | 0 |
| Cc1ccc(CC(=O)N(C)C(c2cncnc2C(C)C)C(C)C)cc1 (racemic) [Compound 1-131] | 1 |
| CC(C)C(c1cncnc1C(F)(F)F)N(C)C(=O)COc1cccc(F)c1 (racemic) [Compound 1-126] | 1 |
| CN(C(=O)Cc1ccc(Cl)cc1)C(c1ccc(F)cc1)c1cncnc1C(F)(F)F (racemic) [1-219] | 1 |
| Cc1ccc(CC(=O)N(C)C(c2cncnc2C)C(C)(C)C)cc1 (racemic) [Compound 1-162] | 0 |

System: monochoria (Mo)
Assay: as above
Assay type: in vivo
Parameters: scale not given here
Details: dose 25 g active ingredient per 10 ares, examined on the 21st day after treatment
Summary of the method: as §2

| SMILES | Mo (herbicidal effects, index) |
| --- | --- |
| CC(C)C(c1cncnc1C(F)(F)F)N(C)C(=O)Cc1ccc([N+](=O)[O-])cc1 (racemic) [Compound 1-52] | 5 |

Same assay, conditions: monochoria, dose 25 gai/10a, 21st day after treatment, index per Table 44

| SMILES | Mo (herbicidal effect index) |
| --- | --- |
| Cc1ccccc1OCC(=O)N(C)C(c1cncnc1C(F)(F)F)C(C)C (racemic) [Compound 1-134] | 5 |
| Cc1ccc(CC(=O)N(C)C(c2cncnc2C(C)C)C(C)C)cc1 (racemic) [Compound 1-131] | 5 |
| CC(C)C(c1cncnc1C(F)(F)F)N(C)C(=O)COc1cccc(F)c1 (racemic) [Compound 1-126] | 5 |
| CN(C(=O)Cc1ccc(Cl)cc1)C(c1ccc(F)cc1)c1cncnc1C(F)(F)F (racemic) [1-219] | 5 |
| Cc1ccc(CC(=O)N(C)C(c2cncnc2C)C(C)(C)C)cc1 (racemic) [Compound 1-162] | 5 |

System: barnyard grass (Eo)
Assay: as above
Assay type: in vivo
Parameters: scale not given here
Details: barnyard grass, dose 25 gai/10a, 21st day after treatment, index per Table 44
Summary of the method: as §2

| SMILES | Eo (herbicidal effect index) |
| --- | --- |
| Cc1ccccc1OCC(=O)N(C)C(c1cncnc1C(F)(F)F)C(C)C (racemic) [Compound 1-134] | 5 |
| Cc1ccc(CC(=O)N(C)C(c2cncnc2C(C)C)C(C)C)cc1 (racemic) [Compound 1-131] | 5 |
| CC(C)C(c1cncnc1C(F)(F)F)N(C)C(=O)COc1cccc(F)c1 (racemic) [Compound 1-126] | 5 |
| CN(C(=O)Cc1ccc(Cl)cc1)C(c1ccc(F)cc1)c1cncnc1C(F)(F)F (racemic) [1-219] | 5 |
| Cc1ccc(CC(=O)N(C)C(c2cncnc2C)C(C)(C)C)cc1 (racemic) [Compound 1-162] | 5 |

Same assay, conditions: dose 25 g active ingredient per 10 ares, examined on the 21st day after treatment

| SMILES | Eo (herbicidal effects, index) |
| --- | --- |
| CC(C)C(c1cncnc1C(F)(F)F)N(C)C(=O)Cc1ccc([N+](=O)[O-])cc1 (racemic) [Compound 1-52] | 5 |

System: barnyard grass (Ec)
Assay: Test Example 2: herbicidal effects by upland soil treatment;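 on herbicidal effects, Se (green foxtail): 0-5 growth inhibition grade; 5 = over 90%; 4 = 70-90%; 3 = 50-70%; 2 = 30-50%; 1 = 10-30%; 0 = under 10%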
Assay type: in vivo
Parameters: scale not given here
Details: dose 100 g active ingredient per 10 ares, examined on the 21st day after treatment, standards of Table 44
Summary of the method: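 Pre-emergence test: barnyard grass and green foxtail sown in upland soil, then soil surface sprayed with wettable-powder formulation at 100 g active ingredient per 10 ares (100 l per 10 ares). Grown in greenhouse; herbicidal effect scored on a rating scale 21 days after treatment.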

| SMILES | herbicidal effects, Ec (barnyard grass) |
| --- | --- |
| Cc1ccccc1OCC(=O)N(C)C(c1cncnc1C(F)(F)F)C(C)C (racemic) [Compound 1-134] | 5 |
| Cc1ccc(CC(=O)N(C)C(c2cncnc2C(C)C)C(C)C)cc1 (racemic) [Compound 1-131] | 5 |
| CC(C)C(c1cncnc1C(F)(F)F)N(C)C(=O)COc1cccc(F)c1 (racemic) [Compound 1-126] | 5 |
| CN(C(=O)Cc1ccc(Cl)cc1)C(c1ccc(F)cc1)c1cncnc1C(F)(F)F (racemic) [1-219] | 5 |
| CC(C)C(c1cncnc1C(F)(F)F)N(C)C(=O)Cc1ccc([N+](=O)[O-])cc1 (racemic) [Compound 1-52] | 5 |
| Cc1ccc(CC(=O)N(C)C(c2cncnc2C)C(C)(C)C)cc1 (racemic) [Compound 1-162] | 5 |

System: monochoria (Mo)
Assay: Test Example 1: herbicidal effects by flooded paddy field treatment;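 on Herbicidal effect index, Eo: 0-5 growth inhibition grade; 5 = over 90%; 4 = 70-90%; 3 = 50-70%; 2 = 30-50%; 1 = 10-30%; 0 = under 10%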
Assay type: in vivo
Parameters: herbicidal effects, Mo (monochoria):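 0-5 growth inhibition grade; 5 = over 90%; 4 = 70-90%; 3 = 50-70%; 2 = 30-50%; 1 = 10-30%; 0 = under 10%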
Details: dose 100 g active ingredient per 10 ares, examined on the 21st day after treatment, standards of Table 44
Summary of the method: as §1

| SMILES | herbicidal effects, Mo (monochoria) |
| --- | --- |
| Cc1ccccc1OCC(=O)N(C)C(c1cncnc1C(F)(F)F)C(C)C (racemic) [Compound 1-134] | 5 |
| Cc1ccc(CC(=O)N(C)C(c2cncnc2C(C)C)C(C)C)cc1 (racemic) [Compound 1-131] | 5 |
| CN(C(=O)Cc1ccc(Cl)cc1)C(c1ccc(F)cc1)c1cncnc1C(F)(F)F (racemic) [1-219] | 5 |
| Cc1ccc(CC(=O)N(C)C(c2cncnc2C)C(C)(C)C)cc1 (racemic) [Compound 1-162] | 5 |

Same assay, conditions: dose 100 gai/10a, examined on 21st day after treatment, index 0-5 per Table 44

| SMILES | Herbicidal effect index, Mo |
| --- | --- |
| CC(C)C(c1cncnc1C(F)(F)F)N(C)C(=O)COc1cccc(F)c1 (racemic) [Compound 1-126] | 5 |
| CC(C)C(c1cncnc1C(F)(F)F)N(C)C(=O)Cc1ccc([N+](=O)[O-])cc1 (racemic) [Compound 1-52] | 5 |

— US6806230B1, “Pyrimidine derivatives and herbicides containing them” (Kumiai Chemical Industry Co., Ltd., priority 1999, dated 2004)
